# Laboratory results: patent US11396531B2, “Antimicrobial peptides comprising epsilon lysine residues” (priority 2016, dated 2022)
# How the values were obtained:
# [1] = test system: primary human dermal fibroblasts (HDFs); test: MTS cytotoxicity assay
# Protocol: MTS ((3-(4,5-dimethylthiazol-2-yl)-5-(3-carboxymethoxyphenyl)-2-(4-sulfophenyl)-2H-tetrazolium)) assay and high content analysis (HCA) were performed to elucidate the effect of various polymers on metabolic activity and morphological parameters of cultured human dermal fibroblasts (hDF), respectively as described previously. The antineoplastic agent, nocodazole (5 μg/ml), served as the […] control whereas cells treated with PBS served as positive control. The average values from three independent triplicate experiments are reported. Cells were cultured in 96-well plates and scanned (16 randomly selected fields/well) using an automated microscope IN Cell Analyzer 2200 (GE Healthcare). The multi-parametric cytotoxicity bio-application module of the IN Cell Investigator software (GE Healthcare) was used in quantitative estimations and morphotypic analysis of acquired images, which were automatically converted into color-coded heatmaps using Spotrfire® software.
# Human dermal fibroblast cells were seeded in 96-well plates (2×10^3 cells/well) and incubated for 24 h at 37° C. and 5% CO2. Cells were then treated with various concentrations of polymers or peptides (62.5 μg/ml-1 mg/ml. At the end of the treatment period (after 24 h), 20 or 50 μl of MTS tetrazolium solution was added into 96-well or 12-well plates and further incubated for 2 h at 37° C. Subsequently, the absorbance was measured at 490 nm using a microplate reader (Infinite M200 Pro, Tecan, Switzerland) and the relative cell viability was calculated. Each treatment was performed in two triplicates and reported.
# The cytotoxicity of peptides and polymers were determined using CellTier 96® Aqueous One solution cell proliferation assay kit according to the manufacturer's instruction (Promega Corporation, Madison, Wis.). This assay evaluates mitochondrial function by measuring ability of viable cells to reduce MTS ((3-(4,5-dimethylthiazol-2-yl)-5-(3-carboxymethoxyphenyl)-2-(4-sulfophenyl)-2H-tetrazolium)) into a quantifiable […] formazan product. HDFs were seeded in 96-well plates (2×10^3 cells/well) and incubated for 24 h at 37° C. and 5% CO2. Cells were then treated with a concentrated stock solution of polymers (final concentration 62.5-2000 μg/ml in the well) or peptides (final concentration 4-1000 μg/ml in the well). After 24 h, 20 μl of MTS tetrazolium solution was added into 96-well well plates and further incubated for 2 h at 37° C. Subsequently, the absorbance was measured at 490 nm using a microplate reader (Infinite M200 Pro, Tecan, Switzerland) and the relative cell viability was calculated relative to untreated control (10 mM PBS, pH 7.0). Each treatment was performed in two triplicates and reported.
# [2] = test system: VRE 1002; test: SYTOX green (SG) uptake assay and bacterial viability; assay type: cell-based, Enterococcus
# Protocol: To discern the pore-forming ability of modified peptide in comparison with melittin, the SYTOX green (SG) uptake assay was performed upon exposure of the peptides and their bactericidal properties were determined. […] Therefore the fluorescence intensity is taken to be proportional to the degree of cell membrane disruption caused by test peptides.
smiles,measurement,setting,value
CC[C@H](C)[C@H](NC(=O)CN)C(=O)NCC(=O)N[C@@H](C)C(=O)N[C@H](C(=O)N[C@@H](CC(C)C)C(=O)N[C@@H](CCCCN)C(=O)N[C@H](C(=O)N[C@@H](CC(C)C)C(=O)N[C@H](C(=O)N[C@H](C(=O)NCC(=O)N[C@@H](CC(C)C)C(=O)N1CCC[C@H]1C(=O)N[C@@H](C)C(=O)N[C@@H](CC(C)C)C(=O)N[C@H](C(=O)N[C@@H](CO)C(=O)N[C@@H](Cc1c[nH]c2ccccc12)C(=O)N[C@H](C(=O)N[C@@H](CCCCN)C(=O)N[C@@H](CCCNC(=N)N)C(=O)N[C@@H](CCCCN)C(=O)N[C@@H](CCCNC(=N)N)C(=O)N[C@@H](CCC(N)=O)C(=O)N[C@@H](CCC(N)=O)C(N)=O)[C@@H](C)CC)[C@@H](C)CC)[C@@H](C)O)[C@@H](C)O)C(C)C)C(C)C [Melittin],Cytotoxicity (in μg/ml) for HDFs,[1]; Concentration at which complete cytotoxicity was observed in MTS and HCA,16 µg/mL
same,Cytotoxicity for primary human dermal fibroblasts,[1]; Table 5,16 µg/mL
same,SG uptake,"[2]; VRE 1002, at 1×MIC",79.2%
same,SG uptake,"[2]; VRE 1002, at 2×MIC",89.7%
